# In patent US20230036041A1, “SORTILIN BINDING CONJUGATE COMPOUNDS, COMPOSITIONS AND USES THEREOF FOR TREATING CANCER” (THERATECHNOLOGIES INC., priority 2019, published 2023):
# “Also recorded” adds a separate entry of the source. Where two headings read alike, the source gives them in different places. Non-standard residues stand in square brackets, D forms with d. Residues, ends and D or L forms follow the SMILES beside them. *: point of attachment. X1 = CC(=O)O[C@@]12CO[C@@H]1C[C@H](O)[C@@]1(C)C(=O)[C@H](O)C3=C(C)[C@@H](OC(=O)[C@H](OC(=O)CCC(=O)*)[C@@H](NC(=O)OC(C)(C)C)c4ccccc4)C[C@@](O)([C@@H](OC(=O)c4ccccc4)[C@H]21)C3(C)C; Nle = CCCC[C@H](N)C(=O)O
# Legend:
# [1] = test system: MDA-MB-231 breast cancer cells; assay: cells; type: cell-based, human; settings: read-out: IC50 value, anti-proliferative activity
# Protocol: In vitro testing of the TH19P01 peptide and the TH1902 conjugate compound was conducted.
# [2] = in vitro stability in mouse plasma; type: in vitro ADME; settings: 37° C.
# Protocol: Additional testing was conducted to study the stability of formulated TH1902 in mouse plasma. TH1902 was either solubilized in […] or formulated with solubilizing agents (Formulation: DMSO/Solutol™ HS15/Tween™-80/EtOH/Sol. Ac. Ac./D5W/water in the following V/V proportion 5/6/2.5/0.75/0.005/69/16.75). TH1902 was incubated in mouse plasma at 37° C. for the indicated times. Plasma proteins were precipitated by the addition of 4 volumes of ACN (87%) with formic acid (0.125%) followed by centrifugation (10,000 rpm×5 min). Supernatants were injected in UPLC/MS. Peak area corresponding to TH1902 was calculated and compared to time 0.
# [3] = test system: HT29 colorectal xenograft tumors; assay: colorectal cancer xenograft model (HT-29); type: in vivo, mice; settings: low and high doses, −20% endpoint limit
# Protocol: (§1) Briefly, stock solution of formulated TH1902 was prepared as sterile aliquots of 10 mg/mL frozen liquid solutions (see below). On the day of animal dosing, frozen aliquots were thawed 30 minutes at room temperature then diluted with sterile 5% dextrose injection, USP (D5W) to the desired concentration for injection (i.e. typically 5.4 or 1.35 mg/mL).
# (§2) TH1902 frozen stock solution were prepared as follow: • 1. Make the TH1902 diluent solution (Diluent) the day before the solubilization. Diluent: 10% Tween™ 80 in D5W USP (w/v) with 0.04% of formic acid (v/v), ˜pH 2.9. Leave solution at room temperature until TH1902 solubilization (next day). • 2. Weigh 60 mg of TH1902 API into a 14 ml glass vial with screw caps. Adjust TH1902 weights to reflect TH1902 purity according to the certificate of analysis. • 3. Add 90% of diluent solution needed to prepare the TH1902 10 mg/ml stock solution. • 4. Swirl the content of the bottle to form opaque mixture and place a stir bar. • 5. Place bottle in the heating apparatus (glass water bath and mount for holding vial with thermometer and stir bar on a digital heating plate). Begin mixing the content of the bottle. • 6. […] Transfer the formulation to a graduated glass cylinder and bring to final calculated volume with diluent solution. • 9. […] Perform UPLC analysis against a TH1902 standard curve for quantification and purity assessment. • 11. […]
# [4] = test system: PANC-1 subcutaneous tumor xenografts; assay: pancreatic cancer xenograft model (PANC-1); type: in vivo, mice; settings: vs vehicle
# Protocol: as §1, §2
# [5] = test system: MDA-MB-231/Luc (triple-negative breast cancer) xenografts; assay: tumor growth inhibition, MDA-MB-231/Luc xenografts in nude mice, TH1902 formulations (Examples 3A, 3B); type: in vivo
# Protocol: TH1902 and docetaxel (supplied by Wonda Science Inc.) were used. […] Both treatments were administered intravenously, on a per week basis over 6 weeks.
# 8 different formulations comprising TH1902 were tested.
# These are derived from a triple-negative breast cancer (TNBC) and they stably express firefly luciferase. […] Cell counts and cell viability were assessed with a BioRad TC20™ automated cell counter.
# 60 young adult, female, homozygous nude mice (Crl:CD1-Foxn1^nu), obtained from Charles River Canada Inc. (St-Constant, Quebec) were used in this study. Healthy mice were selected based on normal veterinary examination.
# Tumor growth was monitored, and mice were randomly assigned to groups the vehicle group, docetaxel group or one of the 8 TH1902 formulations group (6 mice per group) for further treatment when tumor volumes reached 40-140 mm^3 or after 2-3 days of significant increase. Experimental procedures
# Mice were first anesthetized with isoflurane and oxygen. Two-dimensional measurements were taken with electronic calipers during the study and tumor volume was calculated using the following formula: tumor volume (mm^3)=0.52*a*b^2, where 0.52 is a constant to calculate the volume of an ellipsoid (π/6), where “a” is the longest diameter and “b” is the shortest diameter[3]. […]
# All mice were observed daily for changes in appearance and behavior, and events recorded when appropriate. […]
SMILES,IC50 [1],half-life ([2]; TH1902 formulated with solubilizing agents (DMSO/Solutol HS15/Tween-80/EtOH/Sol. Ac. Ac./D5W/water 5/6/2.5/0.75/0.005/69/16.75)),half-life ([2]; TH1902 solubilized in DMSO),body weights [3],IC50 ([1]; Homo sapiens),"tumor growth / tumor size, low dose ([4]; docetaxel 3.75 mg/kg, TH1902 8.75 mg/kg, day 21 and extended)","tumor growth / tumor size, high dose ([4]; docetaxel 15 mg/kg (MTD), TH1902 35 mg/kg, day 21)","tumor volumes / tumor growth up to Day 24 ([5]; 8.75 mg/kg/week TH1902, docetaxel at ¼ MTD, vs vehicle, FIG. 16)","ΔT/ΔC (%) (at endpoint, Day-24) ([5]; 8.75 mg/kg/week of TH1902 (docetaxel 3.75 mg/kg))"
"CCCC[C@H](NC(=O)[C@H](CC(N)=O)NC(=O)[C@H](CCCNC(=N)N)NC(=O)[C@@H](NC(=O)CNC(=O)[C@H](C)NC(=O)[C@H](CCCCNC(=O)CCC(=O)O[C@@H](C(=O)O[C@H]1C[C@@]2(O)[C@@H](OC(=O)c3ccccc3)[C@@H]3[C@]4(OC(C)=O)CO[C@@H]4C[C@H](O)[C@@]3(C)C(=O)[C@H](O)C(=C1C)C2(C)C)[C@@H](NC(=O)OC(C)(C)C)c1ccccc1)NC(=O)[C@H](C)NC(=O)[C@H](CCCNC(=N)N)NC(=O)[C@@H](NC(=O)CNC(C)=O)C(C)C)C(C)C)C(=O)N[C@@H](Cc1ccccc1)C(=O)N[C@@H](CCCCNC(=O)CCC(=O)O[C@@H](C(=O)O[C@H]1C[C@@]2(O)[C@@H](OC(=O)c3ccccc3)[C@@H]3[C@]4(OC(C)=O)CO[C@@H]4C[C@H](O)[C@@]3(C)C(=O)[C@H](O)C(=C1C)C2(C)C)[C@@H](NC(=O)OC(C)(C)C)c1ccccc1)C(=O)N[C@@H](CO)C(=O)N[C@@H](CCC(=O)O)C(=O)N[C@@H](CO)C(=O)N[C@@H](Cc1ccc(O)cc1)C(=O)O [TH1902, Acetyl-GVRAK(docetaxel)AGVRN(Nle)FK(docetaxel)SESY] (Ac-GVRAK(X1)AGVRN[Nle]FK(X1)SESY-OH)",0.19 ± 0.09 nM,30 h,5 h,within the acceptable range,–,–,–,–,–
CC(=O)O[C@@]12CO[C@@H]1C[C@H](O)[C@@]1(C)C(=O)[C@H](O)C3=C(C)[C@@H](OC(=O)[C@H](O)[C@@H](NC(=O)OC(C)(C)C)c4ccccc4)C[C@@](O)([C@@H](OC(=O)c4ccccc4)[C@H]21)C3(C)C [docetaxel],–,–,–,within the acceptable range,0.56 ± 0.19 nM,very similar in size to those treated with vehicle; also recorded: indistinguishable,Decreased tumor growth; also recorded: significant decreases in tumor size,grow slightly faster than those in the control animals,143%
